Laboratory results: patent US9656990B2, “Cathepsin cysteine protease inhibitors” (Merck Sharp & Dohme Corp., priority 2014, dated 2017)

Columns and labels:
[1] = molecular target: T1, human cathepsin F (Homo sapiens, UniProt Q9UBX1); test: Cathepsin F Assay; assay type: biochemical; conditions: IP from dose response curve; Z-Phe-Arg-AMC substrate, pH 5.5; read-out: hCat F (IP (nM))
T1 sequence (Q9UBX1 271-484): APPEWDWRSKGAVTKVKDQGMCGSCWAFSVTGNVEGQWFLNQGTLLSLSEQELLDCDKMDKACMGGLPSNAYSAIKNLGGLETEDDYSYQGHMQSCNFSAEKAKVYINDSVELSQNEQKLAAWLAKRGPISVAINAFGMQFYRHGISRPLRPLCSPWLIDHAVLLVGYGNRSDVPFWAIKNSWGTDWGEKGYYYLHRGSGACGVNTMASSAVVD
Procedure, shortened: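 Human cathepsin F (10 nM) preincubated 15 min at room temperature with compounds in 50 mM MES pH 5.5, 2.5 mM EDTA, 2.5 mM DTT, 10% DMSO. Z-Phe-Arg-AMC (8 μM) added; AMC release read by fluorescence (Ex 360/Em 460 nm) over 20 min, inhibition fit to dose-response model.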

[2] = molecular target: human cathepsin K (UniProt P43236, Y175D/V274L, species not given); test: Cathepsin K Assay; assay type: biochemical; conditions: IP from dose response curve; Z-Leu-Arg-AMC substrate, pH 5.5; read-out: hrbCat K (IP (nM))

Compound	IC50 [1]	IC50 [2]
N#CC1(NC(=O)[C@@H]2CCCC[C@H]2c2nn(-c3ccc(OC(F)(F)F)cc3)cc2-c2ccc(N3CCS(=O)(=O)CC3)cc2)CC1 [Example 119, (1R,2R)-N-(1-cyanocyclopropyl)-2-(4-(4-(1,1-dioxidothiomorpholino)phen-yl)-1-(4-(trifluoromethoxy)phenyl)-1H-pyrazol-3-yl)cyclohexanecarboxamide]	562 nM	1.8 nM
CC1(C)CC[C@@H](c2nn(-c3ccc(F)cc3)cc2-c2ccc(N3CCS(=O)(=O)CC3)cc2)[C@H](C(=O)NC2(C#N)CC2)C1 (single isomer, unassigned) [Example 127, (1S,2S) or (1R,2R)-N-(1-cyanocyclopropyl)-2-(4-(4-(1,1-dioxidothiomorpholino)phen-yl)-1-(4-fluorophenyl)-1H-pyrazol-3-yl)-5,5-dimethylcyclohexanecarbox-amide]	632 nM	1.5 nM
CC(C)[C@@H](C#N)NC(=O)[C@@H]1CCCC[C@H]1c1nn(-c2ccc(F)cc2)c(CO)c1-c1ccc(N2CCS(=O)(=O)CC2)cc1 [Example 65, (1R,2R)-N-((S)-1-cyano-2-methylpropyl)-2-(4-(4-(1,1-dioxidothiomorpholino)phen-yl)-1-(4-fluorophenyl)-5-(hydroxymethyl)-1H-pyrazol-3-yl)cyclohexanecarboxamide]	868 nM	11 nM
CN=S1(=O)CCN(c2ccc(-c3c([C@@H]4CCCC[C@H]4C(=O)N[C@H](C#N)C(C)C)nn(-c4ncccc4F)c3C)cc2)CC1 [Example 48, (1R,2R)-N-((S)-1-cyano-2-methylpropyl)-2-(1-(3-fluoropyridin-2-yl)-5-methyl-4-(4-(1-(methylimino)-1-oxidothiomorpholino)phenyl)-1H-pyrazol-3-yl)cyclohexanecarboxamide]	7350 nM	19.2 nM
N#Cc1cc(-n2cc(-c3ccc(N4CCS(=O)(=O)CC4)cc3)c([C@@H]3CCCC[C@H]3C(=O)NC3(C#N)CC3)n2)ccc1F [Example 110, (1R,2R)-2-(1-(3-cyano-4-fluorophenyl)-4-(4-(1,1-dioxidothiomorpholino)phen-yl)-1H-pyrazol-3-yl)-N-(1-cyanocyclopropyl)cyclohex-anecarboxamide]	275 nM	0.83 nM
N#CC1(NC(=O)[C@@H]2CCCC[C@H]2c2nn(-c3cc(F)cc(F)c3)cc2-c2ccc(N3CCS(=O)(=O)CC3)cc2)CC1 [Example 118, (1R,2R)-N-(1-cyanocyclopropyl)-2-(1-(3,5-difluorophenyl)-4-(4-(1,1-dioxidothiomorpholino)phen-yl)-1H-pyrazol-3-yl)cyclohexanecarboxamide]	273 nM	0.54 nM
N#CC1(NC(=O)[C@@H]2CCCC[C@H]2c2nn(-c3ccc(Cl)cn3)cc2-c2ccc(N3CCS(=O)(=O)CC3)cc2)CC1 [Example 146, (1R,2R)-2-(1-(5-chloropyridin-2-yl)-4-(4-(1,1-dioxidothiomorpholino)phen-yl)-1H-pyrazol-3-yl)-N-(1-cyanocyclopropyl)cyclohex-anecarboxamide]	272 nM	1.15 nM
CN=S1(=O)CCN(c2ccc(-c3cn(-c4ccc(F)cn4)nc3[C@@H]3CC[C@H](F)C[C@H]3C(=O)NC3(C#N)CC3)cc2)CC1 [Example 159, (1R,2R,5S)-N-(1-cyanocyclopropyl)-5-fluoro-2-(1-(5-fluoropyridin-2-yl)-4-(4-(1-(methylimino)-1-oxidothiomorpholino)phenyl)-1H-pyrazol-3-yl)cyclohexanecarboxamide]	1410 nM	3.22 nM
CC1(C)CCC(C(=O)NC2(C#N)CC2)C(c2nn(-c3ccc(F)cc3)cc2-c2ccc(N3CCS(=O)(=O)CC3)cc2)C1 (single isomer, unassigned) [Example 116, (1R,2R or 1S,2S)-N-(1-cyanocyclopropyl)-2-(4-(4-(1,1-dioxidothiomorpholino)phen-yl)-1-(4-fluorophenyl)-1H-pyrazol-3-yl)-4,4-dimethylcyclohexanecarbox-amide]	1200 nM	328 nM
